In the NIST ThermoML archive (doi:10.1021/je060138i):
± gives the expanded uncertainty stated by the source.

What was measured:
[1] = for mass density: 293.15 K, 101.33 kPa, Liquid
[2] = refractive index (Na D-line) (dimensionless); conditions: 293.15 K; 101.33 kPa; Liquid; Standard Abbe refractometry

Row | SMILES | Normal melting temperature ([1]; Crystal, visual observation) | refractive index [2] | mass density [1]
1 | O=P1(O)OCC2(CO1)COP(=O)(O)OC2 (stereo unspecified) | 310.50 ± 4.4 °C |  | 
2 | CC(=O)O [acetic acid] |  | 1.3718 ± 0.0008 | 1050 ± 1 kg/m3
3 | CC(C)=O [acetone] |  | 1.359 ± 0.0007 | 790 ± 1 kg/m3
4 | CC#N [acetonitrile] |  | 1.343 ± 0.0007 | 783 ± 1 kg/m3
5 | ClCCl [dichloromethane] |  | 1.4237 ± 0.0007 | 1321 ± 1 kg/m3
6 | CCOC(C)=O [ethyl acetate] |  | 1.3719 ± 0.0007 | 899 ± 1 kg/m3
